The values below come from US6787562B2, “Substituted aryl and heteroaryl compounds as E-type prostaglandin antagonists” (Zeneca Ltd., priority 1995, dated 2004).

In series [1] the test system is dog fundus. The note with it: cited from earlier work.
Series [2] has as its system guinea pig ileum. As to conditions: cited from earlier work.

`O=C(O)c1ccc(NCc2cc(Br)ccc2CCc2ccccc2)cc1` [Example 4, 4-[N-(5-Bromo-2-(phenethyl)benzyl)amino]Benzoic Acid] gave a melting point of 126 to 127 °C.
Same read-out and setting: the figure for `CCN(Cc1ccccc1Oc1ccccc1)c1ccc(C(=O)O)nn1` [Example 12, 6-(N-Ethyl-N-(2-phenoxybenzyl)amino)pyridazine-3-carboxylic Acid] is 70 to 75 °C; for `CCN(Cc1ccccc1Oc1ccccc1)c1ccc(C(=O)O)cn1` [Example 13, 2-(N-ethyl-N-(2-phenoxybenzyl)amino)pyridine-5-carboxylic Acid] it is 170.5 to 172 °C; for `O=C(O)c1ccc(SCc2ccccc2OCc2ccccc2)cc1` [Example 18, 4-[2-Benzyloxybenzylthio]benzoic Acid] it is 144 °C.
The molecule `O=C(Nc1cccnc1)c1ccc(SCc2ccccc2OCc2ccccc2)cc1` [Example 19, N-(3-Pyridyl)-4-[2-benzyloxybenzylthio]benzamide] had a melting point of 108 °C.
`O=C(O)c1ccc(OCc2ccccc2OCc2ccccc2)cc1` [Example 21, 4-(2-(Benzyloxy)benzyloxy)benzoic Acid]: the melting point lay in the range of 176.8 to 178.8 °C.
Same read-out and setting: the figure for `CC(Oc1ccc(C(=O)O)cc1)c1ccccc1OCc1ccccc1` (centres unmarked) [Example 22, 4-(1-(2-(Benzyloxy)phenyl)ethoxy)benzoic Acid] is 108 °C; for `O=C(O)c1ccc(OCc2ccccc2CCc2ccccc2)cc1` [Example 23, 4-(2-(phenethyl)benzyloxy)benzoic Acid] it is 178 to 180 °C; for `O=C(O)c1ccc(CCCc2ccccc2Sc2ccccc2)cc1` [Example 32, 4-[3-(2-(phenylthio)phenyl)propyl]benzoic Acid] it is 90 to 91 °C.
On the same count and under the same terms, to `O=C(O)c1ccc(CCc2ccccc2CCc2ccccc2)cc1O` [Example 33, 2-Hydroxy-4-[(2-phenethyl)phenethyl]benzoic Acid] belongs 134 to 137 °C; to `O=C(O)c1ccc(CCCc2ccccc2Cc2ccccc2)cc1` [Example 34, 4-[3-(2-benzylphenyl)propyl]benzoic Acid], 135 to 136 °C; to `O=C(O)c1ccc(CNc2cc(Br)ccc2OCc2ccccc2)cc1` [Example 37, 4-[N-(2-Benzyloxy-5-bromophenyl)aminomethyl]benzoic Acid], 216 to 217 °C.
`CCN(Cc1ccc(C(=O)O)cc1)c1cc(Br)ccc1OCc1ccccc1` [Example 38, 4-[N-(2-Benzyloxy-5-bromophenyl)-N-ethylaminomethyl]benzoic Acid]: the melting point is 94.5 to 95 °C.
For the molecule `CC(Nc1cc(Br)ccc1OCc1ccccc1)c1ccc(C(=O)O)cc1` (centres unmarked) [Example 39, 4-[1-(N-(2-Benzyloxy-5-bromophenyl)-amino)ethyl]benzoic Acid], the melting point lay in the range of 186.5 to 187 °C.
The same measure, in the same setting: the figure for `CC(c1ccc(C(=O)O)cc1)N(C)c1ccc(Br)cc1OCc1ccccc1` (centres unmarked) [Example 40, 4-[1-(N-(2-Benzyloxy-4-bromophenyl)-N-methylamino)ethyl]benzoic Acid] is 181.5 to 182 °C.
Take `CC(=O)NNC(=O)N1Cc2ccccc2Oc2ccc(Cl)cc21` [SC-19220]: the “effect of PGE2 on tissue blocked” value in series [1] and in series [2] was “blocks the effect of PGE2” in each case.
